The source of these data is patent publication US7759345B2, “Antitumoral derivatives of ET-743” (priority 2001, dated 2010).

The structures appear in SMILES notation. Like-named read-outs stand apart in the source and are kept apart here.

One test concerns MEL-28. Briefly: Inhibition of cell growth by counting cells, MEL-28. Type of test: cell-based, human. As to conditions: Homo sapiens, SK-MEL-28, 72 h; three days of incubation; read-out: IC50 (molar) MEL-28. The procedure, abridged: (§1)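 1×10^4 cells/well, EMEM 5% FCS + test sample at several concs, duplicates; 3 d, 37° C, 5% CO2, humidified. Trypsinize, Coulter count; % growth vs untreated wells; IC50 from dose-response curve.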

The next test concerns A-549. Briefly: Inhibition of cell growth by counting cells, A-549. As to conditions: Homo sapiens, A549, 72 h; three days of incubation; read-out: IC50 (molar) A-549. Type of test: cell-based, human. In a few lines: as §1
Another test deals with P-388. Briefly: Inhibition of cell growth by counting cells, P-388. Type of test: cell-based, mouse. The conditions noted are these: Mus musculus, P388, 72 h; three days of incubation; read-out: IC50 (molar) P-388. The procedure, abridged:
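IC50 is the sample concentration halving growth, taken from dose-response curves of cell counts (Coulter counter, duplicate wells) relative to drug-free cultures. P-388 (DBA/2 mouse lymphoid neoplasm) cells plated at 1×10^4 per well in EMEM with 5% FCS plus test sample.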

A further test has as its system DU-145. Briefly: Inhibition of cell growth by counting cells, DU-145. Type of test: cell-based, human. The conditions noted are these: Homo sapiens, DU-145, 72 h, read-out: IC50 (molar) DU-145. In a few lines: as §1
In another test the test system is HT-29. Briefly: Inhibition of cell growth by counting cells, HT-29. Type of test: cell-based, human. As to conditions: Homo sapiens, HT-29, 72 h; three days of incubation; read-out: IC50 (molar) HT-29. In a few lines: as §1

One may read the IC50 as the midpoint of a concentration-inhibition curve. `COc1cc2c(cc1OC(=O)OC(C)(C)C)CCN[C@]21CS[C@@H]2c3c(OC(C)=O)c(C)c4c(c3[C@H](COC1=O)N1C2[C@H]2c3c(cc(C)c(OC)c3O)C[C@@H]([C@@H]1O)N2C)OCO4` (some centres unmarked) [Compound 66]: the IC50 in the test on MEL-28, in the test with A-549, in the test with P-388, in the test with DU-145 (three days of incubation) and with HT-29 was 0.116 nM in each case.
`CCCOc1cc2c(cc1OC)[C@@]1(CS[C@@H]3c4c(OC(C)=O)c(C)c5c(c4[C@H](COC1=O)N1C3[C@H]3c4c(cc(C)c(OC)c4O)C[C@@H]([C@@H]1O)N3C)OCO5)NCC2` (some centres unmarked) [Compound 69]: the IC50 with MEL-28 turned out to be 0.623 nM; with A-549, 0.623 nM; with P-388, 0.125 nM; in the test on DU-145 (three days of incubation), 0.623 nM; with HT-29, 0.623 nM.
As for `COc1cc2c(cc1OCc1ccccc1)CCN[C@]21CS[C@@H]2c3c(OC(C)=O)c(C)c4c(c3[C@H](COC1=O)N1C2[C@H]2c3c(cc(C)c(OC)c3O)C[C@@H]([C@@H]1O)N2C)OCO4` (some centres unmarked) [Compound 71], the IC50 with MEL-28, in the test on A-549, in the test with P-388, in the test on DU-145 (three days of incubation) and with HT-29 was 0.588 nM in each case.
Regarding `CCCCCCCCCCCCCCCC(=O)Oc1cc2c(cc1OC)[C@@]1(CS[C@@H]3c4c(OC(C)=O)c(C)c5c(c4[C@H](COC1=O)N1C3[C@H]3c4c(cc(C)c(OC)c4OC(=O)CCCCCCCCCCCCCCC)C[C@@H]([C@@H]1O)N3C)OCO5)NCC2` (some centres unmarked) [Compound 83], the IC50 in the test with MEL-28, in the test with A-549, with P-388, with DU-145 (three days of incubation) and in the test on HT-29 was 80.8 nM each time.
In the case of `CCOc1cc2c(cc1OC)[C@@]1(CS[C@@H]3c4c(OC(C)=O)c(C)c5c(c4[C@H](COC1=O)N1C3[C@H]3c4c(cc(C)c(OC)c4OCC)C[C@@H]([C@@H]1O)N3C)OCO5)NCC2` (some centres unmarked) [Compound 88], the IC50 with MEL-28, in the test on A-549, with P-388, in the test on DU-145 (three days of incubation) and in the test on HT-29 was 12.2 nM each time.
`CCCOc1cc2c(cc1OC)[C@@]1(CS[C@@H]3c4c(OC(C)=O)c(C)c5c(c4[C@H](COC1=O)N1C3[C@H]3c4c(cc(C)c(OC)c4OCCC)C[C@@H]([C@@H]1O)N3C)OCO5)NCC2` (some centres unmarked) [Compound 89]: the IC50 in the test with MEL-28, with A-549, in the test on P-388, in the test with DU-145 (three days of incubation) and with HT-29 was 591 nM throughout.
Consider `C=CCOc1cc2c(cc1OC)[C@@]1(CS[C@@H]3c4c(OC(C)=O)c(C)c5c(c4[C@H](COC1=O)N1C3[C@H]3c4c(cc(C)c(OC)c4OCC=C)C[C@@H]([C@@H]1O)N3C)OCO5)NCC2` (some centres unmarked) [Compound 90], for which the concentration for half-maximal inhibition (IC50) with MEL-28, in the test with A-549, in the test with P-388, in the test with DU-145 (three days of incubation) and in the test on HT-29 was 11.9 nM each time.
As to `COc1cc2c(cc1OCc1ccccc1)CCN[C@]21CS[C@@H]2c3c(OC(C)=O)c(C)c4c(c3[C@H](COC1=O)N1C2[C@H]2c3c(cc(C)c(OC)c3OCc3ccccc3)C[C@@H]([C@@H]1O)N2C)OCO4` (some centres unmarked) [Compound 91], the IC50 in the test on MEL-28, in the test with A-549, in the test on P-388, in the test with DU-145 (three days of incubation) and in the test with HT-29 was 106 nM in each case.
With `COc1cc2c(cc1OC(=O)OC(C)(C)C)CCN[C@]21CS[C@@H]2c3c(O)c(C)c4c(c3[C@H](COC1=O)N1C2[C@H]2c3c(cc(C)c(OC)c3O)C[C@@H]([C@@H]1C#N)N2C)OCO4` (some centres unmarked) [Compound 106], the IC50 in the test with MEL-28, in the test on A-549, with P-388, with DU-145 (three days of incubation) and in the test on HT-29 was 1.21 nM in each case.
Take `COc1cc2c(cc1OC(=O)OC(C)(C)C)CCN[C@]21CS[C@@H]2c3c(OC(=O)C(F)(F)F)c(C)c4c(c3[C@H](COC1=O)N1C2[C@H]2c3c(cc(C)c(OC)c3O)C[C@@H]([C@@H]1C#N)N2C)OCO4` (some centres unmarked) [Compound 107]: the IC50 in the test with MEL-28, with A-549, with P-388, with DU-145 (three days of incubation) and in the test on HT-29 was 1.08 nM in each case.
Turning to `CCCC(=O)Oc1c(C)c2c(c3c1[C@H]1SC[C@]4(NCCc5cc(OC(=O)OC(C)(C)C)c(OC)cc54)C(=O)OC[C@@H]3N3C1[C@H]1c4c(cc(C)c(OC)c4O)C[C@@H]([C@@H]3C#N)N1C)OCO2` (some centres unmarked) [Compound 111], the IC50 in the test with MEL-28, with A-549, with P-388, in the test on DU-145 and with HT-29 was 1.11 nM in each case.
With `COc1cc2c(cc1OC(=O)OC(C)(C)C)CCN[C@]21CS[C@@H]2c3c(OC(=O)/C=C/c4ccccc4)c(C)c4c(c3[C@H](COC1=O)N1C2[C@H]2c3c(cc(C)c(OC)c3O)C[C@@H]([C@@H]1C#N)N2C)OCO4` (some centres unmarked) [Compound 113], the IC50 with MEL-28, in the test on A-549, in the test on P-388, in the test with DU-145 (three days of incubation) and in the test on HT-29 was 10.4 nM each time.
As to `CCCCCCCC(=O)Oc1c(C)c2c(c3c1[C@H]1SC[C@]4(NCCc5cc(OC(=O)OC(C)(C)C)c(OC)cc54)C(=O)OC[C@@H]3N3C1[C@H]1c4c(cc(C)c(OC)c4O)C[C@@H]([C@@H]3C#N)N1C)OCO2` (some centres unmarked) [Compound 119], the IC50 in the test with MEL-28, with A-549, in the test with P-388, in the test on DU-145 (three days of incubation) and with HT-29 was 10.5 nM each time.
For `CCCCCCCC(=O)Oc1c(C)c2c(c3c1[C@H]1SC[C@]4(NCCc5cc(OC(=O)OC(C)(C)C)c(OC)cc54)C(=O)OC[C@@H]3N3C1[C@H]1c4c(cc(C)c(OC)c4OC(=O)CCCCCCC)C[C@@H]([C@@H]3C#N)N1C)OCO2` (some centres unmarked) [Compound 120], the IC50 in the test with MEL-28, in the test on A-549, in the test with P-388, with DU-145 (three days of incubation) and with HT-29 was 463 nM in each case.
In the case of `CCCCCCCCCCCCCCCC(=O)Oc1c(C)c2c(c3c1[C@H]1SC[C@]4(NCCc5cc(OC(=O)OC(C)(C)C)c(OC)cc54)C(=O)OC[C@@H]3N3C1[C@H]1c4c(cc(C)c(OC)c4O)C[C@@H]([C@@H]3C#N)N1C)OCO2` (some centres unmarked) [Compound 121], the 50% inhibitory concentration (IC50) in the test with MEL-28, in the test with A-549, in the test with P-388, with DU-145 (three days of incubation) and with HT-29 was 469 nM throughout.
For `CCCCCCCCCCCCCCCC(=O)Oc1c(C)c2c(c3c1[C@H]1SC[C@]4(NCCc5cc(OC(=O)OC(C)(C)C)c(OC)cc54)C(=O)OC[C@@H]3N3C1[C@H]1c4c(cc(C)c(OC)c4OC(=O)CCCCCCCCCCCCCCC)C[C@@H]([C@@H]3C#N)N1C)OCO2` (some centres unmarked) [Compound 122], the IC50 in the test on MEL-28, with A-549, in the test with P-388, in the test on DU-145 (three days of incubation) and with HT-29 was 830 nM in each case.
